Measured values taken from the supplement of paper PMC10307832.

How the values were obtained:
Experiment in all cases: relative viability (nuclei count vs DMSO), 5 days (fraction); higher = more cells survive
AZ628 + Linsitinib = compound: CC1=C(C=C(C=C1)NC(=O)C2=CC(=CC=C2)C(C)(C)C#N)NC3=CC4=C(C=C3)N=CN(C4=O)C [AZ628] + C[C@]1(O)C[C@@H](c2nc(-c3ccc4ccc(-c5ccccc5)nc4c3)c3c(N)nccn32)C1 [Linsitinib] (partner 1 µM)
Outline: (§1)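 After 5 days of treatment, lung cancer cells in 1536-well plates were fixed and stained in a single step (final 0.05% Triton X-100, 1% formaldehyde, 1 ug/ml Hoechst) and their nuclei counted on 4× images. Treatment had been applied by pin tool the day after seeding as one drug alone or as a fixed anchor-drug dose with five library-drug doses (not always all listed) in √10 steps. Relative viability is the nuclei count of treated wells divided by that of vehicle wells, and values are medians of duplicate plates.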

QS11 + Tozasertib = compound: C1CC2=C(C1)C=C(C=C2)OC3=NC(=C4C(=N3)N(C=N4)CC5=CC=C(C=C5)C6=CC=CC=C6)N[C@@H](CC7=CC=CC=C7)CO [QS11] + Cc1cc(Nc2cc(N3CCN(C)CC3)nc(Sc3ccc(NC(=O)C4CC4)cc3)n2)n[nH]1 [Tozasertib] (partner 0.1 µM)
Outline: as §1

AZ628 + Phenformin = compound: CC1=C(C=C(C=C1)NC(=O)C2=CC(=CC=C2)C(C)(C)C#N)NC3=CC4=C(C=C3)N=CN(C4=O)C [AZ628] + N=C(N)NC(=N)NCCc1ccccc1 [Phenformin] (partner 250 µM)
Outline: as §1

QS11 + Olaparib = compound: C1CC2=C(C1)C=C(C=C2)OC3=NC(=C4C(=N3)N(C=N4)CC5=CC=C(C=C5)C6=CC=CC=C6)N[C@@H](CC7=CC=CC=C7)CO [QS11] + O=C(c1cc(Cc2n[nH]c(=O)c3ccccc23)ccc1F)N1CCN(C(=O)C2CC2)CC1 [Olaparib] (partner 8 µM)
Outline: as §1

Cell Line | relative viability (AZ628 + Linsitinib; first compound 0.08 µM) | relative viability (AZ628 + Linsitinib; first compound 0.253 µM) | relative viability (AZ628 + Linsitinib; first compound 0.8 µM) | relative viability (AZ628 + Linsitinib; first compound 2.53 µM) | relative viability (AZ628 + Linsitinib; first compound 8 µM) | relative viability (QS11 + Tozasertib; first compound 0.08 µM) | relative viability (QS11 + Tozasertib; first compound 0.253 µM) | relative viability (QS11 + Tozasertib; first compound 0.8 µM) | relative viability (QS11 + Tozasertib; first compound 2.53 µM) | relative viability (QS11 + Tozasertib; first compound 8 µM) | relative viability (AZ628 + Phenformin; first compound 0.08 µM) | relative viability (AZ628 + Phenformin; first compound 0.253 µM) | relative viability (AZ628 + Phenformin; first compound 0.8 µM) | relative viability (AZ628 + Phenformin; first compound 2.53 µM) | relative viability (AZ628 + Phenformin; first compound 8 µM) | relative viability (QS11 + Olaparib; first compound 0.08 µM) | relative viability (QS11 + Olaparib; first compound 0.253 µM) | relative viability (QS11 + Olaparib; first compound 0.8 µM) | relative viability (QS11 + Olaparib; first compound 2.53 µM) | relative viability (QS11 + Olaparib; first compound 8 µM)
NCI-H838 | 0.995 | 0.977 | 1.11 | 0.896 | 0.883 | 0.293 | 0.276 | 0.232 | 0.224 | 0.209 | 0.666 | 0.551 | 0.502 | 0.493 | 0.474 | 0.873 | 0.743 | 0.582 | 0.718 | 0.709
NCI-H2228 | 0.504 | 0.686 | 0.622 | 1.1 | 0.517 | 0.195 | 0.241 | 0.309 | 0.296 | 0.289 | 0.25 | 0.274 | 0.252 | 0.218 | 0.206 | 0.586 | 0.663 | 0.727 | 0.648 | 0.993
NCI-H596 | 1.03 | 1.12 | 0.982 | 1.1 | 1.22 | 0.875 | 0.879 | 0.923 | 0.93 | 1.13 | 0.722 | 0.85 | 0.969 | 0.781 | 0.808 | 0.724 | 0.563 | 0.634 | 0.606 | 0.61
NCI-H647 | 1.36 | 1.27 | 1.07 | 1.19 | 1.05 | 0.287 | 0.268 | 0.291 | 0.323 | 0.197 | 0.695 | 0.525 | 0.467 | 0.323 | 0.405 | 0.676 | 0.523 | 0.541 | 0.604 | 0.664
NCI-H441 | 0.64 | 0.494 | 0.549 | 0.425 | 0.396 | 0.642 | 0.572 | 0.582 | 0.481 | 0.581 | 0.991 | 0.71 | 0.822 | 0.712 | 0.469 | 0.511 | 0.54 | 0.518 | 0.364 | 0.463
